# Measured values taken from paper PMC9814779, “A triple farnesoid X receptor and peroxisome proliferator-activated receptor α/δ activator reverses hepatic fibrosis in diet-induced NASH in mice” (Communications Chemistry, 2020).
# Read-outs that look alike come from different tables or passages of the source.
# Legend:
# Type in all cases: cell-based
# Design in all cases: Emax: dose or concentration left out as unconfirmed
# [1] = target: T1, human PPARδ ligand-binding domain (Gal4 chimera) (Homo sapiens, UniProt Q03181); assay: Gal4 hybrid reporter gene assay, PPARδ
# T1 construct: coding for the hinge region and LBD of the canonical isoform of the respective nuclear receptor; expressed in transfected cells; host or cells: HEK293T
# T1 sequence (Q03181 211-439 limits assumed): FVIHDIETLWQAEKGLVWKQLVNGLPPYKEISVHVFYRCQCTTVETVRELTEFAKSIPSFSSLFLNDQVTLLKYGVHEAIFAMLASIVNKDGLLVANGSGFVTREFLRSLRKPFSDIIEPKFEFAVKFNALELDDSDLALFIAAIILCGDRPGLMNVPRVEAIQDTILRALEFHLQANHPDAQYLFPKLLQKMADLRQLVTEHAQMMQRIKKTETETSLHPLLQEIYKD
# [2] = target: T2, human PPARγ ligand-binding domain (Gal4 chimera) (Homo sapiens, UniProt P37231); assay: Gal4 hybrid reporter gene assay, PPARγ
# T2 construct: coding for the hinge region and LBD of the canonical isoform of the respective nuclear receptor; expressed in transfected cells; host or cells: HEK293T
# T2 sequence (P37231 238-503 limits assumed): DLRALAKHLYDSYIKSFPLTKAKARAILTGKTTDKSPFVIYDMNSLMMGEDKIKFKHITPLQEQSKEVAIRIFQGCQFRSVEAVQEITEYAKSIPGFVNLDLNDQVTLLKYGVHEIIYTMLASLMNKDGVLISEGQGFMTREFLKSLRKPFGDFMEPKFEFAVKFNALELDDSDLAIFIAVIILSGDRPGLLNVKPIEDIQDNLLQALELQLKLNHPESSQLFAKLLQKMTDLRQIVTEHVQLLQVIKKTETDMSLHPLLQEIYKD
# [3] = target: T3, human FXR:retinoid X receptor (RXR) heterodimer (Homo sapiens, UniProt Q96RI1); assay: Full-length FXR reporter gene assay (BSEP response element) in HeLa cells; details: for Emax: read-out: max. rel. act. FXR; for FXR max. rel. act.: Supplementary Table 1, relative to GW4064 at 3 µM
# T3 construct: pcDNA3-hFXR[32] and pSG5-hRXR[33] served for receptor overexpression in the full-length FXR assay; expressed in transfected cells; host or cells: HeLa
# T3 sequence (P19793 whole entry): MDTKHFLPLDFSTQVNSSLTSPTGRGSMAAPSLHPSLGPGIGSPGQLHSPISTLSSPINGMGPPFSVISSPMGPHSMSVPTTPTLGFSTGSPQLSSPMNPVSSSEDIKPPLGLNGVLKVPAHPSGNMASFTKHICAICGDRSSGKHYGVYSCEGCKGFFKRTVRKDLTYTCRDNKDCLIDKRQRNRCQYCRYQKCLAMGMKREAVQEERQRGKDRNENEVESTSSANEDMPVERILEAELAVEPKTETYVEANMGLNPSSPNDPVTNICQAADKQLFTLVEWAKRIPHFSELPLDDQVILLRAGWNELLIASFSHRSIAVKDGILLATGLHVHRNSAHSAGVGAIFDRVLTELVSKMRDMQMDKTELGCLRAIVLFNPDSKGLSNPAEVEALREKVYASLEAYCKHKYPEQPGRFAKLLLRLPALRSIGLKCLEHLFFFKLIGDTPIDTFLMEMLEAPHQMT
# T3 sequence (Q96RI1 whole entry): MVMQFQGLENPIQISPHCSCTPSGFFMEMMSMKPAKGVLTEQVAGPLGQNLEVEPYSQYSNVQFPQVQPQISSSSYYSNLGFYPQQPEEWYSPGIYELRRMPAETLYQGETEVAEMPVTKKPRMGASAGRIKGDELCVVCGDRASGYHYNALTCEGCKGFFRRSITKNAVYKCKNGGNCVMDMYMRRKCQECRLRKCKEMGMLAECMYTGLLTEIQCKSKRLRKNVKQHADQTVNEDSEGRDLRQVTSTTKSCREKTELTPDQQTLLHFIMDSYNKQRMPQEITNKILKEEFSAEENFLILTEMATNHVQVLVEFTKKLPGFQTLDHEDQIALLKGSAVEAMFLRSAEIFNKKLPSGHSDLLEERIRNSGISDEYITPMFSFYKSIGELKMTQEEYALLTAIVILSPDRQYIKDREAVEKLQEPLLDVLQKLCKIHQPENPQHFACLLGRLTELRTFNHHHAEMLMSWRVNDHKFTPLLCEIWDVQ
# [4] = target: T4, human PPARα ligand-binding domain (Gal4 chimera) (Homo sapiens, UniProt Q07869); assay: Gal4 hybrid reporter gene assay, PPARα
# T4 construct: coding for the hinge region and LBD of the canonical isoform of the respective nuclear receptor; expressed in transfected cells; host or cells: HEK293T
# T4 sequence (Q07869 239-466 limits assumed): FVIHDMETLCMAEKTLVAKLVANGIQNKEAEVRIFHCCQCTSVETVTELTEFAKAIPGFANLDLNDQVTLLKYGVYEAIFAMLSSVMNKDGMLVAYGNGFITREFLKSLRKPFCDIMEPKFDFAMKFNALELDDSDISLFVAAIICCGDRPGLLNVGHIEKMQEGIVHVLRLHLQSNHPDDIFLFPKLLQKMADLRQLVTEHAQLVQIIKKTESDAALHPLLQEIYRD
# [5] = Supplementary Table 1, chromene derivatives, mean ± SEM, n ≥ 2, read-out: PPAR EC50
# [6] = Supplementary Table 1, chromene derivatives, mean ± SEM, n ≥ 2, read-out: FXR EC50
# [7] = PPAR EC50 [M], Supplementary Table 1, chromene derivatives, mean ± SEM, n ≥ 2
# [8] = EC50 [μM] PPARδ, HEK293T, mean ± SEM, n = 3
# [9] = HeLa, mean ± SEM, n = 3, read-out: EC50 [μM] FXR
# [10] = EC50 [μM] PPARα, HEK293T, mean ± SEM, n = 3
# [11] = HEK293T, mean ± SEM, n = 3, read-out: EC50 [μM] PPARδ
# [12] = HEK293T, mean ± SEM, n = 3, read-out: EC50 [μM] PPARγ
Compound,"EC50 [1, 8]",Emax ([1]; read-out: max. rel. act. PPARδ),EC50 [2],Emax ([2]; read-out: max. rel. act. PPARγ),Emax ([3]; HeLa),"EC50 [3, 9]","EC50 [4, 10]",Emax ([4]; read-out: max. rel. act. PPARα),other results
O=C(O)CCc1cccc(NC(=O)c2ccccc2NC(=O)C2=Cc3cccc(Cl)c3OC2)c1 [S9],–,–,–,–,–,–,–,–,"EC50 [1, 5]: 0.91 ± 0.36 µM; Emax ([1]; read-out: PPAR max. rel. act.): 16 ± 2%; EC50 [2, 5]: 2.4 ± 0.2 µM; Emax ([2]; read-out: PPAR max. rel. act.): 7.6 ± 0.2%; EC50 [3, 6]: > 10 µM; EC50 [4, 7]: 2.3e-06 ± 1e-07 M; Emax ([4]; read-out: PPAR max. rel. act.): 35 ± 1%"
O=C(O)CCc1cccc(NC(=O)c2ccccc2NC(=O)C2=Cc3cc(Cl)ccc3OC2)c1 [S6],–,–,–,–,–,–,–,–,"EC50 [1, 5]: 1.6 ± 0.5 µM; Emax ([1]; read-out: PPAR max. rel. act.): 14 ± 2%; EC50 [2, 5]: 3 ± 0.5 µM; Emax ([2]; read-out: PPAR max. rel. act.): 5.1 ± 0.3%; EC50 [3, 6]: > 10 µM; EC50 [4, 7]: 3.1e-06 ± 4e-07 M; Emax ([4]; read-out: PPAR max. rel. act.): 27 ± 2%"
O=C(O)CCc1cccc(NC(=O)c2ccccc2NC(=O)c2ccc3ccccc3c2)c1 [compound 9],0.65 ± 0.03 µM,28%,2.6 ± 0.3 µM,19%,20%,2.6 ± 0.3 µM,1e-06 ± 2e-07 M,31%,–
O=C(O)CCc1cccc(NC(=O)c2cc(O)ccc2NC(=O)c2ccc3ccccc3c2)c1 [compound 26],10 ± 2 µM,24%,13 ± 1 µM,9%,–,> 10 µM,8.9e-06 ± 8e-07 M,28%,–
O=C(O)CCc1cccc(NC(=O)c2ccccc2NC(=O)c2ccc(-n3ccnn3)cc2)c1 [compound 39],–,–,–,–,–,> 10 µM,> 1e-05 M,–,"EC50 [1, 11]: > 10 µM; EC50 [2, 12]: > 30 µM"
O=C(O)CNc1cccc(NC(=O)c2ccccc2NC(=O)c2ccc3ccccc3c2)c1 [compound 14],–,83%,–,7.7%,31%,1.3 ± 0.1 µM,> 3e-05 M,–,"EC50 [1, 11]: 3.5 ± 0.2 µM; EC50 [2, 12]: 5.7 ± 0.1 µM"
O=C(O)CCc1cccc(NC(=O)c2cc(OC(F)(F)F)ccc2NC(=O)c2ccc3ccccc3c2)c1 [compound 28],0.1 ± 0.01 µM,19%,1.1 ± 0.2 µM,18%,–,> 10 µM,2.1e-07 ± 2e-08 M,54%,–
"O=C(O)CCc1cccc(NC(=O)c2ccccc2NC(=O)C2=Cc3ccccc3OC2)c1 [S1, 3-(3-[2-{2H-Chromene-3-carboxamido}benzamido]phenyl)propanoic acid]",–,–,–,–,–,–,–,–,"EC50 [1, 5]: 1.2 ± 0.1 µM; Emax ([1]; read-out: PPAR max. rel. act.): 26 ± 1%; EC50 [2, 5]: 7.7 ± 0.6 µM; Emax ([2]; read-out: PPAR max. rel. act.): 6.6 ± 0.2%; EC50 [3, 6]: 4.1 ± 0.8 µM; FXR max. rel. act. ([3]; n ≥ 2): 14 ± 1%; EC50 [4, 7]: 5.2e-06 ± 8e-07 M; Emax ([4]; read-out: PPAR max. rel. act.): 26 ± 3%"
"O=C(O)CCc1cccc(NC(=O)c2ccccc2NC(=O)C2=Cc3cc(F)ccc3OC2)c1 [S5, 3-(3-[2-{6-Fluoro-2H-chromene-3-carboxamido}benzamido]phenyl)propanoic acid]",–,–,–,–,–,–,–,–,"EC50 [1, 5]: 2.6 ± 0.8 µM; Emax ([1]; read-out: PPAR max. rel. act.): 20 ± 3%; EC50 [2, 5]: 4.6 ± 0.8 µM; Emax ([2]; read-out: PPAR max. rel. act.): 17 ± 1%; EC50 [3, 6]: > 10 µM; EC50 [4, 7]: 1.8e-06 ± 6e-07 M; Emax ([4]; read-out: PPAR max. rel. act.): 20 ± 1%"
CC(C)(C)c1ccc(C(=O)Nc2cccc(CCC(=O)O)c2)c(NC(=O)c2ccc3ccccc3c2)c1 [compound 24],–,–,1.5 ± 0.1 µM,20%,–,–,3.1e-07 ± 8e-08 M,63%,preference over PPARγ ([2]; triple FXR/PPARα/δ potency versus PPARγ): approximately fivefold preference over PPARγ
O=C(O)CCc1cccc(NC(=O)c2ccccc2NC(=O)c2ccc(-c3cnco3)cc2)c1 [compound 38],–,32%,–,16%,53%,15 ± 4 µM,> 3e-05 M,–,"EC50 [1, 11]: 12 ± 1 µM; EC50 [2, 12]: 5.3 ± 0.2 µM"
O=C(O)CCc1cccc(NC(=O)c2ccc(OC(F)(F)F)cc2NC(=O)c2ccc3ccccc3c2)c1 [compound 23],0.38 ± 0.06 µM,30%,1 ± 0.2 µM,15%,12%,–,1.1e-06 ± 3e-07 M,31%,EC50 [3]: 1.1 ± 0.1 µM
O=C(O)CCc1cccc(NC(=O)c2cc3c(cc2NC(=O)c2ccc4ccccc4c2)OCO3)c1 [compound 29],0.4 ± 0.1 µM,31%,0.9 ± 0.3 µM,15%,14%,2.9 ± 0.6 µM,4.6e-07 ± 3e-08 M,25%,–
Cc1cccc(NC(=O)c2ccc3ccccc3c2)c1C(=O)Nc1cccc(CCC(=O)O)c1 [compound 19],6.3 ± 0.9 µM,20%,11 ± 2 µM,2.5%,–,> 10 µM,7.4e-06 ± 4e-07 M,15%,–
Cc1ccc(NC(=O)c2ccc3ccccc3c2)c(C(=O)Nc2cccc(CCC(=O)O)c2)c1 [compound 18],0.21 ± 0.01 µM,14%,3.3 ± 0.1 µM,23%,–,> 10 µM,8e-07 ± 2e-08 M,25%,–
COc1ccc(NC(=O)c2ccc3ccccc3c2)c(C(=O)Nc2cccc(CCC(=O)O)c2)c1 [compound 27],0.36 ± 0.01 µM,23%,2 ± 0.1 µM,15%,–,> 10 µM,2.3e-07 ± 4e-08 M,53%,–
O=C(O)CCc1cccc(NC(=O)c2ccc(Cl)cc2NC(=O)c2ccc3ccccc3c2)c1 [compound 20],1.9 ± 0.2 µM,16%,1.4 ± 0.1 µM,6%,–,> 10 µM,3e-06 ± 1e-07 M,16%,–
O=C(O)CCc1cccc(NC(=O)c2cc(Cl)ccc2NC(=O)c2ccc3ccccc3c2)c1 [compound 25],0.28 ± 0.03 µM,17%,6 ± 1 µM,26%,12%,2.6 ± 0.4 µM,9e-07 ± 2e-07 M,42%,–
Cc1ccc2c(c1)OCC(C(=O)Nc1ccccc1C(=O)Nc1cccc(CCC(=O)O)c1)=C2 [S7],–,–,–,–,–,–,–,–,"EC50 [1, 5]: 1.1 ± 0.1 µM; Emax ([1]; read-out: PPAR max. rel. act.): 30 ± 1%; EC50 [2, 5]: 5 ± 1.6 µM; Emax ([2]; read-out: PPAR max. rel. act.): 7.9 ± 1.4%; EC50 [3, 6]: > 10 µM; EC50 [4, 7]: 3.4e-06 ± 1e-07 M; Emax ([4]; read-out: PPAR max. rel. act.): 38 ± 1%"
O=C(O)CCc1cccc(NC(=O)c2ccc(O)cc2NC(=O)c2ccc3ccccc3c2)c1 [compound 21],2.4 ± 0.1 µM,34%,2.3 ± 0.3 µM,20%,16%,4.5 ± 0.1 µM,5.3e-06 ± 5e-07 M,54%,–
O=C(O)CCc1cccc(NC(=O)c2ccccc2NC(=O)C2=Cc3cccc(O)c3OC2)c1 [S11],–,–,–,–,–,–,–,–,"EC50 [1, 5]: > 30 µM; EC50 [2, 5]: 7.9 ± 1.2 µM; Emax ([2]; read-out: PPAR max. rel. act.): 6.3 ± 0.5%; EC50 [3, 6]: > 10 µM; EC50 [4, 7]: > 3e-05 M"
O=C(O)CCc1cccc(NC(=O)c2ccccc2NC(=O)c2ccc(-c3ccsc3)cc2)c1 [compound 34],1.6 ± 0.3 µM,59%,1.3 ± 0.2 µM,17%,18%,0.6 ± 0.1 µM,1.7e-06 ± 1e-07 M,32%,–
O=C(O)CCc1cccc(NC(=O)c2ccccc2NC(=O)c2ccc(-c3cnoc3)cc2)c1 [compound 36],–,–,–,–,–,–,–,–,"EC50 [μM] PPARδ ([1]; HEK293T, mean ± SEM, n = 3): Unstable; EC50 [μM] PPARγ ([2]; HEK293T, mean ± SEM, n = 3): Unstable; EC50 [μM] FXR ([3]; HeLa, mean ± SEM, n = 3): Unstable; EC50 [μM] PPARα ([4]; HEK293T, mean ± SEM, n = 3): Unstable"
COc1cccc2c1OCC(C(=O)Nc1ccccc1C(=O)Nc1cccc(CCC(=O)O)c1)=C2 [S10],–,–,–,–,–,–,–,–,"EC50 [1, 5]: 5.2 ± 0.2 µM; Emax ([1]; read-out: PPAR max. rel. act.): 30 ± 1%; EC50 [2, 5]: 23 ± 2 µM; Emax ([2]; read-out: PPAR max. rel. act.): 8.6 ± 0.6%; EC50 [3, 6]: 2.8 ± 0.3 µM; FXR max. rel. act. ([3]; n ≥ 2): 14 ± 1%; EC50 [4, 7]: 6.6e-06 ± 1.8e-06 M; Emax ([4]; read-out: PPAR max. rel. act.): 26 ± 5%"
O=C(O)Cc1ccccc1NC(=O)c1ccccc1NC(=O)c1ccc2ccccc2c1 [compound 7],> 10 µM,–,1.7 ± 0.1 µM,17 ± 10%,31%,9.2 ± 0.2 µM,1.4e-06 ± 1e-07 M,33%,–
Cc1cccc2c1OCC(C(=O)Nc1ccccc1C(=O)Nc1cccc(CCC(=O)O)c1)=C2 [S8],–,–,–,–,–,–,–,–,"EC50 [1, 5]: 1.2 ± 0.4 µM; Emax ([1]; read-out: PPAR max. rel. act.): 18 ± 2%; EC50 [2, 5]: 3.1 ± 0.2 µM; Emax ([2]; read-out: PPAR max. rel. act.): 9.3 ± 0.5%; EC50 [3, 6]: > 10 µM; EC50 [4, 7]: 3.5e-06 ± 2e-07 M; Emax ([4]; read-out: PPAR max. rel. act.): 29 ± 1%"
O=C(O)CCc1cccc(NC(=O)c2ccccc2NC(=O)c2ccc(-c3ccoc3)cc2)c1 [compound 32],–,–,4.2 ± 0.9 µM,38%,20%,0.23 ± 0.01 µM,1.6e-06 ± 3e-07 M,31%,–
